Data from patent publication US20070134793A1, “REDIFFERENTIATION MEDIUM FOR MAKING […] CHONDROCYTE TO BE […] INTO CHONDROCYTE” (priority 2004, published 2007).

System: dedifferentiated chondrocyte (P4, derived from human auricular cartilage)
Test: Study of preferable amount of each component in the redifferentiation medium (type II collagen expression)
Type: cell-based
Conditions: insulin 50, 5, 0.5 μg/mL compared; BMP-2 200 ng/mL, T3 10^-7 M

Question: Which “content of insulin at which the expression amount of type II collagen was the largest” value does the source give for insulin here?
Answer: 5 µg/mL
